Laboratory results reported in patent publication US10745389B2, “HDAC6 selective inhibitors, preparation method therefor, and application thereof” (CSTONE PHARMACEUTICALS (SUZHOU) CO., LTD., priority 2017, dated 2020).

Tests used:
[1] = target: T1, HDAC 6 (Homo sapiens, UniProt Q9UBN7); assay: In vitro HDAC enzyme inhibition, fluorescent deacetylation assay (HDAC6); assay type: biochemical
T1 sequence (Q9UBN7 1-1215): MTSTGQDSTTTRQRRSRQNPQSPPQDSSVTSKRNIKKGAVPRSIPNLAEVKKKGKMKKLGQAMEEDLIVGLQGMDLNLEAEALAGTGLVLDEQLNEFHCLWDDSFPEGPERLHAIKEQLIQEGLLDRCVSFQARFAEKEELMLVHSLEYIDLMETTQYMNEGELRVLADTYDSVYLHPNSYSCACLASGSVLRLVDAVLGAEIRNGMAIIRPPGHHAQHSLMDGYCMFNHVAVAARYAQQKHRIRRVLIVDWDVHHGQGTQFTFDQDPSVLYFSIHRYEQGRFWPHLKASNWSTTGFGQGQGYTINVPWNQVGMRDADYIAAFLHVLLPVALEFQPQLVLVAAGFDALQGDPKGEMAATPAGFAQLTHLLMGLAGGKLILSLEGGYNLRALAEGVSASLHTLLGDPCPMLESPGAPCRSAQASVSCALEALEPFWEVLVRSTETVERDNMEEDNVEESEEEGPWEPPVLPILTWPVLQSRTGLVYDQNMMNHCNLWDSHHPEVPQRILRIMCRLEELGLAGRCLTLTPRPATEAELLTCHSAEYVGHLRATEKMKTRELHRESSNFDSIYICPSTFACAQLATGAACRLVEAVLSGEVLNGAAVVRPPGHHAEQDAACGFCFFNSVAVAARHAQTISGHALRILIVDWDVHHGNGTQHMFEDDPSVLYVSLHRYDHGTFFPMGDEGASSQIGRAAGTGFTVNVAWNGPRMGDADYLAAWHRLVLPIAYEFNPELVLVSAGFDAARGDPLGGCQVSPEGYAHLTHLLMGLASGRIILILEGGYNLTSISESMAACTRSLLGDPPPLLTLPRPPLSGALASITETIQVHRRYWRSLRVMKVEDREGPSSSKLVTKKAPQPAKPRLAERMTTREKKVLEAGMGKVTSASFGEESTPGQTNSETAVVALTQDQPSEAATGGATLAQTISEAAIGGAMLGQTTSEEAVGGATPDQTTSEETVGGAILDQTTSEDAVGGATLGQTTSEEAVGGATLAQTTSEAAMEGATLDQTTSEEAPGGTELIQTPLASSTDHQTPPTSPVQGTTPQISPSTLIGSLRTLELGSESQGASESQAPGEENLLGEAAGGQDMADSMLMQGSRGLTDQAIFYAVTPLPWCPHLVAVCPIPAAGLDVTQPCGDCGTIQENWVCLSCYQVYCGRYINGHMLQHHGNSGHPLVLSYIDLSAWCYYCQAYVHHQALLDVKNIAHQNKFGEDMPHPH
Experimental: (§1) The degree of deacetylation of the acetylated substrate was determined by detecting the changes in the intensity of the fluorescent signal in the 384-well microplate using EnVision® microplate reader, the half inhibitory comcentration IC50 value of the compound inhibitor was used as a reference to evaluate the inhibitory effect of the compound on the histone deacetylase (HDAC). The compound was diluted by DMSO to 2 mM, and then added to 384 compound plate, then the solution was diluted 3 times, 10 gradients and double duplicate wells using a Bravo automated liquid workstation; then 0.15 μL of the compound was transferred from 384 compound plate to 384 assay plate by Echo liquid handler. 1.2 configuration of the assay buffer: the configuration contains 20 mM Hepes, 137 mM NaCl, 2.7 mM KCl, 1 mM MgCl2, 0.05% BSA, 0.5 mM TCEP of 1× assay buffer, each of which is represented by final concentration thereof. The rapidly dissolving histone deacetylase was added to the 1× assay buffer and mixed well. The 1.5× enzyme mixture was added to a 20 μL to 384-well assay plate, mixed by centrifugation, placed in a 23° C. incubator, and the enzyme was incubated with the compound for 20 minutes. The 3× substrate solution was configured by 1× assay buffer, and then mixed well. 10 μL was added to a 384-well assay plate, mixed by centrifugation, and placed in a 23° C. incubator for 90 minutes for reaction. The terminating mixture of trypsin and the positive compound SAHA (Vorinostat, vorinostat) was configured with 1× assay buffer and mixed well. The reaction was terminated by adding 30 μL to a 384-well assay plate, then centrifuged, and placed in a 23° C. incubator for 60 minutes. After termination of the reaction for 60 minutes, the 384-well assay plate was placed on an Envision micro-plate reader and the fluorescence value was read. 1.7 Data analysation: the data was analyzed by using XLfit5 software to calculate the IC50 value of the compound.

[2] = target: HDAC 1 (Homo sapiens, UniProt Q13547); assay: In vitro HDAC enzyme inhibition, fluorescent deacetylation assay (HDAC1); assay type: biochemical
HDAC 1, sequence (Q13547 whole entry, species assumed): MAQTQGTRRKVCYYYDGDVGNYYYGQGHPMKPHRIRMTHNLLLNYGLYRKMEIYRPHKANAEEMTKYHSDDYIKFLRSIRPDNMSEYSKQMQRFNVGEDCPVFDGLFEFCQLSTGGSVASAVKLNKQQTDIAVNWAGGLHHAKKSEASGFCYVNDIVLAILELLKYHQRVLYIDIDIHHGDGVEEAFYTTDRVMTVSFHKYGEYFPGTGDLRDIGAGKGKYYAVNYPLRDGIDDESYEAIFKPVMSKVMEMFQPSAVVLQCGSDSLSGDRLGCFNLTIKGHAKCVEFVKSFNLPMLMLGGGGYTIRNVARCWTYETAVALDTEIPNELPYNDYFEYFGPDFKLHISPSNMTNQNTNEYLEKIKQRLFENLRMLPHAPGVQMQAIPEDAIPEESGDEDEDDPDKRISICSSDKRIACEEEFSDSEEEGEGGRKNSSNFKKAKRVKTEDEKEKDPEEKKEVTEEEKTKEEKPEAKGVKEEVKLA
Experimental: as §1

[3] = Pharmacokinetic evaluation in male beagle dogs; assay type: in vivo; details: plasma, male beagle dog
Experimental: Purpose of the experiment: test the compound's pharmacokinetics in male beagle dogs
Experimental materials: Beagle (male, 6-15 kg, 6 months-4 age, Marshall Bioresources, Beijing, China)
The Beagle's pharmacokinetic characteristics after oral administration of the compound were tested by a standard scheme. In the experiment, the candidate compound was formulated into a uniform suspension and administered to a beagle dog for single oral administration. Oral menstruum was formed by a certain proportion of polyethylene glycol-polyoxyethylene castor oil aqueous solution. Blood samples within 24 hours was collected, then centrifuged at 3000 g for 10 minutes, the supernatant was separated to obtain plasma samples, 30 μL of plasma samples was added into 300 μL of internal standard acetonitrile solution to precipitate protein, 30 μL of supernatant was obtained after vortex and centrifugation, and then equal volume of water was added, followed by vortex and centrifugation for another time to collect the supernatant, and the plasma concentration was quantitatively analyzed by LC-MS/MS analysis, and the pharmacokinetic parameters such as peak concentration, peak-reached time, half-life, and area under the administrating curve were calculated.

SMILES	IC50 [1] [µM]	IC50 [2] [µM]	half-life ([3]; oral, read-out: Half-life T1/2 (converted)) [h]	AUC ([3]; single oral administration, read-out: Integrated concentration AUC) [µM·h]	bioavailability ([3]; single oral administration, read-out: bioavailability F (%)) [%]	clearance ([3]; read-out: Clearance rate) [mL/min/kg]
O=C(NO)c1ccc(Cn2ccc(C3(c4c(F)cc(F)cc4F)CCCO3)cc2=O)cc1 (centres unmarked) [Embodiment10]	0.01 to 0.05	> 0.2				
O=C(NO)c1ccc(CNc2ccc(C3(c4ccc(F)cc4)CCCO3)cc2)cc1 (centres unmarked) [Embodiment23]	0.01 to 0.05	> 0.2				
O=C(NO)c1ccc(Cn2ccc(C3(c4ccc(F)cc4)COCCO3)cc2=O)cc1 (centres unmarked) [Embodiment17]	≤ 0.01	0.05 to 0.2				
O=C(NO)c1ccc(Cn2ccc(C3(c4ccc(F)cc4)CCCO3)cc2=O)cc1 (single isomer, unassigned) [Embodiment4]	≤ 0.01	0.05 to 0.2				
O=C(NO)c1ccc(Cn2ccc(C3(c4ccc(F)cc4)CCCO3)c(F)c2=O)cc1 (centres unmarked) [Embodiment14]	≤ 0.01	0.05 to 0.2				
O=C(NO)c1ccc(Cn2ccc(C3(c4ccc(F)cc4)CCCO3)cc2=O)cn1 (centres unmarked) [Embodiment9]	0.05 to 0.2	> 0.2				
O=C(NO)c1ccc(CNC(=O)c2ccc(C3(c4ccc(F)cc4)CCCO3)cn2)cc1 (centres unmarked) [Embodiment26]	≤ 0.01	0.05 to 0.2	2.14	13.3	53.1	16
O=C(NO)c1ccc(Cn2cc(F)c(C3(c4ccc(F)cc4)CCCO3)cc2=O)cc1 (centres unmarked) [Embodiment11]	≤ 0.01	0.05 to 0.2				
O=C(NO)c1ccc(Cn2ccc(C3(c4ccc(F)cc4)OCCO3)cc2=O)cc1 [Embodiment16]	≤ 0.01	0.05 to 0.2				
O=C(NO)c1ccc(Cn2ccc(C3(c4ccccn4)CCCO3)cc2=O)cc1 (centres unmarked) [Embodiment18]	≤ 0.01	0.05 to 0.2				
O=C(NO)c1ccc(Cn2ccc(C3(c4ccc(F)cc4)CCCO3)cc2=O)cc1 (single isomer, unassigned) [Embodiment5]	≤ 0.01	0.05 to 0.2				
O=C(NO)c1ccc(CNC(=O)c2ccc(C3(c4ccc(F)cc4)CCCO3)cc2)cc1 (centres unmarked) [Embodiment20]	≤ 0.01	0.05 to 0.2				
O=C(NO)c1ccc(Cn2ccc(C3(c4ccc(F)cc4)CCCO3)cc2=O)cc1 (centres unmarked) [Embodiment3]	≤ 0.01	0.05 to 0.2				
O=C(NO)c1ccc(Nc2ccc(C3(c4ccc(F)cc4)CCCO3)cc2)cc1 (centres unmarked) [Embodiment24]	0.01 to 0.05	> 0.2				
O=C(NO)c1ccc(Cn2ccc(C3(c4ccc(F)cc4)CCO3)cc2=O)cc1 (centres unmarked) [Embodiment12]	≤ 0.01	0.05 to 0.2				
O=C(NO)c1cnc(Cn2ccc(C3(c4ccc(F)cc4)CCCO3)cc2=O)nc1 (centres unmarked) [Embodiment8]	≤ 0.01	> 0.2				
O=C(NO)c1ccc(Cn2ccc(C3(c4ccncc4)CCCO3)cc2=O)cc1 (centres unmarked) [Embodiment19]	≤ 0.01	0.05 to 0.2				
O=C(NO)c1ccc(NC(=O)c2ccc(C3(c4ccc(F)cc4)CCCO3)cc2)cc1 (centres unmarked) [Embodiment25]	0.01 to 0.05	> 0.2				

Next, values leading:

IC50 [1] [µM]	IC50 [2] [µM]	half-life ([3]; oral, read-out: Half-life T1/2 (converted)) [h]	AUC ([3]; single oral administration, read-out: Integrated concentration AUC) [µM·h]	bioavailability ([3]; single oral administration, read-out: bioavailability F (%)) [%]	clearance ([3]; read-out: Clearance rate) [mL/min/kg]	SMILES
≤ 0.01	0.05 to 0.2					O=C(NO)c1ccc(CNC(=O)c2ccc(C3(c4ccc(F)cc4)CCCO3)cc2)cc1 (single isomer, unassigned) [Embodiment22]
≤ 0.01	0.05 to 0.2					O=C(NO)c1ccc(Cn2ccc(C3(c4ccc(F)cc4)CCCCO3)cc2=O)cc1 (centres unmarked) [Embodiment15]
≤ 0.01	> 0.2					CC(C)C1(c2ccn(Cc3ccc(C(=O)NO)cc3)c(=O)c2)CCCO1 (centres unmarked) [Embodiment1]
≤ 0.01	> 0.2					CC1(c2ccn(Cc3ccc(C(=O)NO)cc3)c(=O)c2)CCCO1 (centres unmarked) [Embodiment2]
≤ 0.01	0.05 to 0.2					O=C(NO)c1ccc(CNC(=O)c2ccc(C3(c4ccc(F)cc4)CCCO3)cc2)cc1 (single isomer, unassigned) [Embodiment21]
≤ 0.01	0.05 to 0.2					O=C(NO)c1ccc(Cn2ccc(C3(c4ccc(F)cc4)CCO3)c(F)c2=O)cc1 (centres unmarked) [Embodiment13]
≤ 0.01	0.05 to 0.2					O=C(NO)c1ccc(Cn2ccc(C3(c4ccc(F)cc4F)CCCO3)cc2=O)cc1 (centres unmarked) [Embodiment6]
≤ 0.01	> 0.2					O=C(NO)c1ccc(Cn2ccc(C3(c4ccc(F)cc4)CCCO3)cc2=O)nc1 (centres unmarked) [Embodiment7]
